According to patent publication US20230123589A1, “MOLECULAR MOBILITY ENHANCER OR MOLECULAR DRYING ENHANCER” (TEKDRY INTERNATIONAL, INC., priority 2020, published 2023):

Test: Evaluation of vapor diffusion (chemical indicators in 2-meter long 4-mm inner diameter polytetrafluoroethylene tube)
Format: physicochemical
Settings: 50° C., less than 10 torr, 15-minute time period
[1] = introduced into chamber extension
[2] = introduced into process chamber

Description: A typical diffusion apparatus for conducting these evaluations includes a stainless-steel pressure chamber which is connected to a smaller stainless-steel extension chamber. Connection is made by means of a stainless-steel tube that contains a valve for isolating vapor flow between the vacuum chamber and the chamber extension. The chamber extension contains isolated compartments that admitted molecular mobility enhancer (MME) and/or liquid or solid agent components. The vacuum chamber and the chamber extension are independently heated. […] The isolated compartments within the chamber extension were independently heated. […] The chamber extension as a whole as well as the isolated compartments within the chamber extension are connected to MME and transport moiety sources via a valve and a conduit connected to a flow controller. The chamber extension is also outfitted with a door that can be used for placing solid agent sources within the extension. The entire system (vacuum chamber and chamber extension) is connected to a vacuum system e.g., (comprising a vacuum pump) capable of reducing the pressure and vaporizing the molecular mobility enhancer and liquid or solid transport moieties.
The tube and its contents were placed in the process chamber of the diffusion system. In this test the process chamber was heated to 50° C. […] The door to the diffusion system was closed and sealed. The diffusion system was evacuated to a pressure less than 10 torr. Multiple vaporization/diffusion cycles were performed over the course of a 15-minute time period. At the end of the process the diffusion system was brought to atmosphere and the tube and its contents were removed from the process chamber.
The tube and its contents were placed in the process chamber of the diffusion system. In this test the diffusion system was heated to 50° C. […] The door to the diffusion system was closed and sealed. The diffusion system including the chamber extension was evacuated to a pressure less than 10 torr. Multiple vaporization/diffusion cycles were performed over the course of a 15-minute time period.

| SMILES | color change on chemical indicators: exposure of entire inner length of the tube to transport moiety vapor [1] | color change on chemical indicators: exposure of entire inner length of the tube to transport moiety vapor [2] |
| --- | --- | --- |
| OO [aqueous hydrogen peroxide (30 wt %), hydrogen peroxide] | entire inner length of the tube had not been exposed | entire inner length of the tube had not been exposed |
| CC(C)O [isopropanol] | entire inner length of the tube had not been exposed | entire inner length of the tube had not been exposed |
